In patent US11225505B2, “Antimicrobial polymyxin derivative compounds” (MONASH UNIVERSITY, priority 2015, dated 2022):
Converted amounts (≈) assume the structure as drawn. Where a SMILES comes first, the peptide text is derived from it. Bridges are numbered along the chain shown (N, C = ends). [ ]: non-standard residue; d: D form. The star is where a group is joined. Benzofuran(2-CO) = O=C(c1cc2ccccc2o1)*; X35 = O=C(c1cc(-c2ccc(Cl)cc2)on1)*; dNle = CCCC[C@@H](N)C(=O)O; X50 = O=C(c1sc(Br)cc1Br)*; dNva = CCC[C@@H](N)C(=O)O; X29 = O=C(c1cc(Cl)ccn1)*; X59 = Cn1c(Br)ccc1C(=O)*; Dab = NCC[C@H](N)C(=O)O; Abu = CC[C@H](N)C(=O)O; Dap = NC[C@H](N)C(=O)O

Assays:
Assay type in all cases: cell-based
[1] = tested on: Klebsiella pneumoniae Kp BM1; details: Kp BM1
In short: (§1)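 Susceptibility of polymyxin-susceptible Gram-negative strains, including multidrug-resistant clinical isolates PA022 and AB034, was tested by broth microdilution. Cation-adjusted Mueller-Hinton broth and the CLSI M100-S24 method were used.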

[2] = tested on: Pseudomonas aeruginosa FADDI-PA022; details: FADDI-PA022
In short: (§2)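 Antibacterial activity is given as MIC from microdilution in CAMHB under the CLSI M100-S24 standard. P. aeruginosa FADDI-PA022 and A. baumannii FADDI-AB034 are multidrug-resistant clinical isolates, while ATCC 17978 is a reference strain.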

[3] = tested on: Pseudomonas aeruginosa ATCC 27853; details: ATCC 27853
In short: as §2

[4] = tested on: Klebsiella pneumoniae FADDI-KP032; details: FADDI-KP032
In short: as §2

[5] = tested on: Acinetobacter baumannii FADDI-AB034; details: FADDI-AB034
In short: as §2

[6] = tested on: Enterobacter cloacae FADDI-EC006; details: FADDI-EC006
In short: as §2

[7] = tested on: Enterobacter cloacae FADDI-EC003; details: FADDI-EC003
In short: as §2

[8] = tested on: Acinetobacter baumannii ATCC 17978; details: ATCC 17978
In short: as §2

[9] = tested on: Enterobacter cloacae FADDI-EC001; details: FADDI-EC001
In short: as §1

[10] = tested on: Pseudomonas aeruginosa FADDI-PA038; details: FADDI-PA038
In short: as §2

[11] = tested on: Pseudomonas aeruginosa FADDI-PA01; details: FADDI-
In short: as §2

[12] = tested on: Klebsiella pneumoniae FADDI-KP022; details: FADDI-KP022
In short: as §2

[13] = tested on: Acinetobacter baumannii FADDI-AB030; experiment: microbe, parasite or virus in culture; details: FADDI-AB030
In short: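 Broth microdilution MIC in cation-adjusted Mueller-Hinton broth per CLSI M100-S24; lipopeptides tested as TFA salts. FADDI-AB030 is a multidrug-resistant clinical isolate. Polymyxin B sulphate served as control.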

SMILES | Minimum inhibitory concentration [1] | Minimum inhibitory concentration [2] | Minimum inhibitory concentration [3] | Minimum inhibitory concentration [4] | Minimum inhibitory concentration [5] | Minimum inhibitory concentration [6] | Minimum inhibitory concentration [7] | Minimum inhibitory concentration [8] | Minimum inhibitory concentration [9] | Minimum inhibitory concentration [10] | Minimum inhibitory concentration [11] | Minimum inhibitory concentration [12] | Minimum inhibitory concentration [13]
CC[C@@H]1NC(=O)[C@@H](CC(C)C)NC(=O)[C@H](CCN)NC(=O)[C@@H](NC(=O)[C@H](CN)NC(=O)[C@@H](NC(=O)[C@H](CCN)NC(=O)c2cc3ccccc3o2)[C@@H](C)O)CCNC(=O)[C@H]([C@@H](C)O)NC(=O)[C@H](CCN)NC(=O)[C@H](CCN)NC1=O [Compound 92] ({Benzofuran(2-CO)}-[Dab]T[Dap][Dab][Dab][dL][Abu][Dab][Dab]T; lactam 4-C) | 0.5 µg/mL (≈ 0.442 µM) | 0.5 µg/mL (≈ 0.442 µM) | 0.5 µg/mL (≈ 0.442 µM) | 0.5 µg/mL (≈ 0.442 µM) | 0.5 µg/mL (≈ 0.442 µM) | <0.125 µg/mL | 0.25 µg/mL (≈ 0.221 µM) | 1 µg/mL (≈ 0.884 µM) | <0.125 µg/mL | 0.5 µg/mL (≈ 0.442 µM) | 0.5 µg/mL (≈ 0.442 µM) | <0.125 µg/mL | 0.5 µg/mL (≈ 0.442 µM)
CC[C@@H]1NC(=O)[C@@H](CC(C)C)NC(=O)[C@H](CCN)NC(=O)[C@@H](NC(=O)[C@H](CN)NC(=O)[C@@H](NC(=O)[C@H](CCN)NC(=O)c2ccc(Br)n2C)[C@@H](C)O)CCNC(=O)[C@H]([C@@H](C)O)NC(=O)[C@H](CCN)NC(=O)[C@H](CCN)NC1=O [Compound 93] (X59-[Dab]T[Dap][Dab][Dab][dL][Abu][Dab][Dab]T; lactam 4-C; N-terminus assumed) | 0.25 µg/mL (≈ 0.213 µM) | 0.5 µg/mL (≈ 0.426 µM) | 0.5 µg/mL (≈ 0.426 µM) | 0.5 µg/mL (≈ 0.426 µM) | 1 µg/mL (≈ 0.852 µM) | 0.25 µg/mL (≈ 0.213 µM) | 0.5 µg/mL (≈ 0.426 µM) | 2 µg/mL (≈ 1.7 µM) | <0.125 µg/mL | 1 µg/mL (≈ 0.852 µM) | 0.5 µg/mL (≈ 0.426 µM) | <0.125 µg/mL | 0.5 µg/mL (≈ 0.426 µM)
CC[C@@H]1NC(=O)[C@@H](CC(C)C)NC(=O)[C@H](CCN)NC(=O)[C@@H](NC(=O)[C@H](CN)NC(=O)[C@@H](NC(=O)[C@H](CCN)NC(=O)c2cc(-c3ccc(Cl)cc3)on2)[C@@H](C)O)CCNC(=O)[C@H]([C@@H](C)O)NC(=O)[C@H](CCN)NC(=O)[C@H](CCN)NC1=O [Compound 94] (X35-[Dab]T[Dap][Dab][Dab][dL][Abu][Dab][Dab]T; lactam 4-C) | 0.5 µg/mL (≈ 0.419 µM) | 0.5 µg/mL (≈ 0.419 µM) | 0.5 µg/mL (≈ 0.419 µM) | <0.125 µg/mL | 0.5 µg/mL (≈ 0.419 µM) | <0.125 µg/mL | 0.25 µg/mL (≈ 0.21 µM) | 1 µg/mL (≈ 0.838 µM) | 0.25 µg/mL (≈ 0.21 µM) | 1 µg/mL (≈ 0.838 µM) | 0.5 µg/mL (≈ 0.419 µM) | <0.125 µg/mL | 0.25 µg/mL (≈ 0.21 µM)
CCCC[C@H]1NC(=O)[C@H](CCN)NC(=O)[C@@H](NC(=O)[C@H](CN)NC(=O)[C@@H](NC(=O)[C@H](CCN)NC(=O)c2cc(Cl)ccn2)[C@@H](C)O)CCNC(=O)[C@H]([C@@H](C)O)NC(=O)[C@H](CCN)NC(=O)[C@H](CCN)NC(=O)[C@H](CC)NC1=O [Compound 95] (X29-[Dab]T[Dap][Dab][Dab][dNle][Abu][Dab][Dab]T; lactam 4-C) | 0.5 µg/mL (≈ 0.444 µM) | 0.25 µg/mL (≈ 0.222 µM) | 0.25 µg/mL (≈ 0.222 µM) | <0.125 µg/mL | 0.25 µg/mL (≈ 0.222 µM) | <0.125 µg/mL | 0.25 µg/mL (≈ 0.222 µM) | 0.25 µg/mL (≈ 0.222 µM) | <0.125 µg/mL | 1 µg/mL (≈ 0.888 µM) | <0.125 µg/mL | 0.25 µg/mL (≈ 0.222 µM) | 0.25 µg/mL (≈ 0.222 µM)
CCC[C@H]1NC(=O)[C@H](CCN)NC(=O)[C@@H](NC(=O)[C@H](CN)NC(=O)[C@@H](NC(=O)[C@H](CCN)NC(=O)c2cc(Cl)ccn2)[C@@H](C)O)CCNC(=O)[C@H]([C@@H](C)O)NC(=O)[C@H](CCN)NC(=O)[C@H](CCN)NC(=O)[C@H](CC)NC1=O [Compound 96] (X29-[Dab]T[Dap][Dab][Dab][dNva][Abu][Dab][Dab]T; lactam 4-C) | 1 µg/mL (≈ 0.899 µM) | 0.25 µg/mL (≈ 0.225 µM) | 0.25 µg/mL (≈ 0.225 µM) | 0.5 µg/mL (≈ 0.449 µM) | 1 µg/mL (≈ 0.899 µM) | 0.5 µg/mL (≈ 0.449 µM) | 0.5 µg/mL (≈ 0.449 µM) | 1 µg/mL (≈ 0.899 µM) | 0.25 µg/mL (≈ 0.225 µM) | 1 µg/mL (≈ 0.899 µM) | 0.25 µg/mL (≈ 0.225 µM) | 0.25 µg/mL (≈ 0.225 µM) | 2 µg/mL (≈ 1.8 µM)
CC(C)C[C@H]1NC(=O)[C@H](CCN)NC(=O)[C@@H](NC(=O)[C@H](CN)NC(=O)[C@@H](NC(=O)[C@H](CCN)NC(=O)c2cc(Cl)ccn2)[C@@H](C)O)CCNC(=O)[C@H]([C@@H](C)O)NC(=O)[C@H](CCN)NC(=O)[C@H](CCN)NC(=O)[C@H](C)NC1=O [Compound 97] (X29-[Dab]T[Dap][Dab][Dab][dL]A[Dab][Dab]T; lactam 4-C) | 0.25 µg/mL (≈ 0.225 µM) | 0.25 µg/mL (≈ 0.225 µM) | 0.25 µg/mL (≈ 0.225 µM) | 0.5 µg/mL (≈ 0.449 µM) | 2 µg/mL (≈ 1.8 µM) | 0.25 µg/mL (≈ 0.225 µM) | 0.25 µg/mL (≈ 0.225 µM) | 2 µg/mL (≈ 1.8 µM) | <0.125 µg/mL | 2 µg/mL (≈ 1.8 µM) | 0.25 µg/mL (≈ 0.225 µM) | <0.125 µg/mL | 2 µg/mL (≈ 1.8 µM)
CC(C)C[C@H]1NC(=O)[C@H](CCN)NC(=O)[C@@H](NC(=O)[C@H](CN)NC(=O)[C@@H](NC(=O)[C@H](CCN)NC(=O)c2cc(Cl)ccn2)[C@@H](C)O)CCNC(=O)[C@H]([C@@H](C)O)NC(=O)[C@H](CCN)NC(=O)[C@H](CCN)NC(=O)[C@H]([C@@H](C)O)NC1=O [Compound 98] (X29-[Dab]T[Dap][Dab][Dab][dL]T[Dab][Dab]T; lactam 4-C) | 0.25 µg/mL (≈ 0.219 µM) | 0.25 µg/mL (≈ 0.219 µM) | 0.25 µg/mL (≈ 0.219 µM) | 0.25 µg/mL (≈ 0.219 µM) | 2 µg/mL (≈ 1.75 µM) | 0.5 µg/mL (≈ 0.438 µM) | <0.125 µg/mL | 2 µg/mL (≈ 1.75 µM) | <0.125 µg/mL | 8 µg/mL (≈ 7 µM) | 0.25 µg/mL (≈ 0.219 µM) | <0.125 µg/mL | 1 µg/mL (≈ 0.875 µM)
CC(C)C[C@H]1NC(=O)[C@H](CCN)NC(=O)[C@@H](NC(=O)[C@H](CN)NC(=O)[C@@H](NC(=O)[C@H](CCN)NC(=O)c2sc(Br)cc2Br)[C@@H](C)O)CCNC(=O)[C@H]([C@@H](C)O)NC(=O)[C@H](CCN)NC(=O)[C@H](CCN)NC(=O)[C@H](C)NC1=O [Compound 99] (X50-[Dab]T[Dap][Dab][Dab][dL]A[Dab][Dab]T; lactam 4-C) | 0.25 µg/mL (≈ 0.201 µM) | 0.25 µg/mL (≈ 0.201 µM) | 0.25 µg/mL (≈ 0.201 µM) | <0.125 µg/mL | 0.5 µg/mL (≈ 0.403 µM) | <0.125 µg/mL | 0.25 µg/mL (≈ 0.201 µM) | 1 µg/mL (≈ 0.806 µM) | <0.125 µg/mL | 1 µg/mL (≈ 0.806 µM) | 0.25 µg/mL (≈ 0.201 µM) | <0.125 µg/mL | 0.5 µg/mL (≈ 0.403 µM)
CC(C)C[C@H]1NC(=O)[C@H](CCN)NC(=O)[C@@H](NC(=O)[C@H](CN)NC(=O)[C@@H](NC(=O)[C@H](CCN)NC(=O)c2sc(Br)cc2Br)[C@@H](C)O)CCNC(=O)[C@H]([C@@H](C)O)NC(=O)[C@H](CCN)NC(=O)[C@H](CCN)NC(=O)[C@H]([C@@H](C)O)NC1=O [Compound 100] (X50-[Dab]T[Dap][Dab][Dab][dL]T[Dab][Dab]T; lactam 4-C) | 0.5 µg/mL (≈ 0.393 µM) | <0.125 µg/mL | <0.125 µg/mL | 0.25 µg/mL (≈ 0.197 µM) | 0.5 µg/mL (≈ 0.393 µM) | <0.125 µg/mL | <0.125 µg/mL | 0.25 µg/mL (≈ 0.197 µM) | <0.125 µg/mL | 1 µg/mL (≈ 0.787 µM) | <0.125 µg/mL | <0.125 µg/mL | 0.5 µg/mL (≈ 0.393 µM)
